Earlier results as cited in US20180221332A1, “Flash-Melt Cannabinoid Formulations” (CannTab Therapeutics Limited, priority 2017, published 2018).

How the values were obtained:
[1] = NICHD/FDA Oral Formulations Platform Report 1; low solubility, unknown permeability
[2] = after administration

## CCCCCc1cc(O)c2c(c1)OC(C)(C)[C@@H]1CCC(C)=C[C@@H]21 [Dronabinol, (−)-trans-Δ^9-tetrahydrocannabinol]
[1]
  biopharmaceutics class: class 2 or class 4
[2]
  duration of appetite stimulant effect: ≥ 24 h
